This note sets out measurements from patent publication US8026359B2, “Fungicidal heterocyclic amines” (E.I. du Pont de Nemours and Company, priority 2007, dated 2011).

Marks after values point to notes of the source that are not given here.

Common to all, as to format: in vivo
For assay [1], the system named is Septoria nodorum. The assay is described as follows: Test C: wheat glume blotch, preventive spray on wheat seedlings. Particulars: 200 ppm, 100 = 100% disease control, 0 = no control relative to controls; for pest or weed control at 200 ppm: Parastagonospora nodorum, 216 h, read-out: Test C disease control rating. The gist of the method: (§1)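 Test plants received run-off sprays of 200 ppm suspension (500 g/ha equivalent) or 40 ppm suspension. These suspensions were made by first dissolving each compound in acetone, then suspending it in an equal acetone/water mix carrying 250 ppm Trem 014.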

For assay [2], the system named is Puccinia recondita f. sp. tritici. Put plainly: Test B: wheat leaf rust, preventive spray on wheat seedlings. The following applies: 200 ppm, 100 = 100% disease control, 0 = no control relative to controls; for pest or weed control at 200 ppm: Puccinia recondita, 192 h, read-out: Test B disease control rating. The gist of the method: as §1
Assay [3] has as its system Fusarium graminearum. Put plainly: whole plant or invertebrate. Particulars: for Test E disease control rating: 200 ppm, 100 = 100% disease control, 0 = no control relative to controls; for pest or weed control at 200 ppm: Fusarium graminearum, in Triticum aestivum, 192 h, read-out: Test E disease control rating.
Assay [4] concerns Colletotrichum orbiculare. Put plainly: Test I: cucumber Colletotrichum anthracnose, preventive spray on cucumber seedlings. The following applies: 100 = 100% disease control, 0 = no control relative to controls; for Test I disease control rating: 200 ppm; for pest or weed control at 200 ppm: Colletotrichum orbiculare, 144 h, read-out: Test I disease control rating. The gist of the method:
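Preventive foliar spray to run-off on cucumber seedlings, at 200 ppm (stated as equal to 500 g/ha) or 40 ppm. Test suspensions were made in acetone/water 50/50 containing 250 ppm Trem 014, after first dissolving compound in acetone at 3% of final volume.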

The subject of assay [5] is Septoria tritici. The assay is described as follows: Test D: wheat leaf blotch, preventive spray on wheat seedlings. The following applies: 200 ppm, 100 = 100% disease control, 0 = no control relative to controls; for pest or weed control at 200 ppm: Zymoseptoria tritici, 504 h, read-out: Test D disease control rating. The gist of the method: as §1
The test system of assay [6] is Botrytis cinerea. The assay is described as follows: Test F: tomato Botrytis, preventive spray on tomato seedlings. Particulars: for pest or weed control at 200 ppm: Botrytis cinerea, 120 h, read-out: Test F disease control rating. The gist of the method:
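Preventive run-off spray onto tomato seedlings at 200 ppm (equivalent to 500 g/ha) or 40 ppm. Suspensions: compound predissolved in acetone at 3% of final volume, then taken up in acetone/purified water 50/50 containing 250 ppm Trem® 014 surfactant.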

Assay [7] relates to Alternaria solani. Put plainly: Test H: tomato early blight, preventive spray on seedlings. Particulars: for pest or weed control at 200 ppm: Alternaria solani, 168 h, read-out: Test H disease control rating. The text has this:
General protocol for preparing test suspensions for Tests A-R: The test compounds were first dissolved in acetone in an amount equal to 3% of the final volume and then suspended at the desired concentration (in ppm) in acetone and purified water (50/50 mix) containing 250 ppm of the surfactant Trem® 014 (polyhydric alcohol esters). The resulting test suspensions were then used in tests A-R. In Tests A-M, compounds were sprayed as a 200 ppm test suspension (equivalent to a rate of 500 g/ha) or as a 40 ppm test suspension to the point of runoff on the test plants. In Tests N-R, compounds were sprayed as a 100 g/ha test suspension (equivalent to a rate of 100 ppm) on the test plants at an application volume of 1000 L/ha. The test suspension was sprayed to the point of run-off on wheat seedlings.

For assay [8], the system named is Erysiphe graminis f. sp. tritici. Put plainly: Test A: wheat powdery mildew, preventive spray on wheat seedlings. The following applies: 200 ppm, 100 = 100% disease control, 0 = no control relative to controls. The gist of the method:
as §1

[9] abbreviates: 200 ppm, 100 = 100% disease control, 0 = no control relative to controls.

With `COC[C@H](C)Nc1nccc(-c2ncnc(Nc3ccc(Cl)cc3)n2)n1` [Compound 15], the “Test C disease control rating” value in assay [1] turned out to be 92%. The “Test B disease control rating” value in assay [2] is 32%. The “Test E disease control rating” value in assay [3] was 0%. For the same compound, in assay [4], the “Test I disease control rating” value came to 93%. Further, in assay [5], the “Test D disease control rating” value was determined as 0%. For the same compound, the “Test F disease control rating” value in assay [6] (setting [9]) amounted to 0%. Besides, the “Test H disease control rating” value in assay [7] (setting [9]) amounted to 90%.
`COC(C)CNc1nccc(-c2ccnc(Nc3cccc(F)c3)c2)n1` (centres unmarked) [Compound 96, 4-[2-[(3-fluorophenyl)amino]-4-pyridinyl]-N-(2-methoxypropyl)-2-pyrimidinamine]: the pest or weed control at 200 ppm in assay [1] was found to be 99%; in assay [2] it was 85%; in assay [3], 0%; in assay [4], 0%; in assay [5], 28%; in assay [6] (setting [9]) it was 86%. The pest or weed control at 200 ppm in assay [7] (setting [9]) was found to be 0%.
In the case of `CC(CO)Nc1nccc(-c2ncnc(Nc3cccc(F)c3)n2)n1` (centres unmarked) [Compound 7], the “Test C disease control rating” value in assay [1] came to 100%. The “Test B disease control rating” value in assay [2] is 99%. The “Test E disease control rating” value in assay [3] amounted to 0%. Besides, the “Test I disease control rating” value in assay [4] is 96%. For the same compound, in assay [5], the “Test D disease control rating” value came out at 87%. Further, in assay [6] (setting [9]), the “Test F disease control rating” value amounted to 0%. Moreover, the “Test H disease control rating” value in assay [7] (setting [9]) was found to be 0%.
Take `Fc1cccc(Nc2ncnc(-c3ccnc(NC4CC4)n3)n2)c1` [Compound 9]: the “Test C disease control rating” value in assay [1] was determined as 99%. Also, the “Test B disease control rating” value in assay [2] amounted to 100%. Further, the “Test E disease control rating” value in assay [3] came out at 80%. In addition, the “Test I disease control rating” value in assay [4] worked out at 100%. Further, in assay [5], the “Test D disease control rating” value is on record as 20%. For the same compound, the “Test F disease control rating” value in assay [6] (setting [9]) is on record as 73%. Also, the “Test H disease control rating” value in assay [7] (setting [9]) came to 99%.
Take `COC[C@H](C)Nc1nccc(-c2ncnc(Nc3cccc(I)c3)n2)n1` [Compound 12]: the “Test C disease control rating” value in assay [1] was 100%. For the same compound, the “Test B disease control rating” value in assay [2] is given as 79%. In addition, the “Test E disease control rating” value in assay [3] turned out to be 96%. Besides, the “Test D disease control rating” value in assay [5] is 0%. In assay [6] (setting [9]), the “Test F disease control rating” value is on record as 37%. In assay [7] (setting [9]), the “Test H disease control rating” value is 98%.
Regarding `COC[C@H](C)Nc1nccc(-c2ncnc(Nc3ccc(Cl)c(Cl)c3)n2)n1` [Compound 14], the “Test C disease control rating” value in assay [1] is reported as 100%. The “Test B disease control rating” value in assay [2] came out at 79%. In assay [3], the “Test E disease control rating” value is listed as 92%. Further, in assay [5], the “Test D disease control rating” value came out at 0%. The “Test F disease control rating” value in assay [6] (setting [9]) worked out at 55%. Besides, in assay [7] (setting [9]), the “Test H disease control rating” value amounted to 95%.
Turning to `COC[C@H](C)Nc1nccc(-c2ncnc(Nc3ccc(C)c(C)c3)n2)n1` [Compound 24], the “Test C disease control rating” value in assay [1] was found to be 100%. Besides, the “Test B disease control rating” value in assay [2] came out at 97%. The “Test E disease control rating” value in assay [3] was 99%. Also, the “Test D disease control rating” value in assay [5] worked out at 24%. Further, the “Test F disease control rating” value in assay [6] (setting [9]) stood at 70%. Besides, the “Test H disease control rating” value in assay [7] (setting [9]) stood at 100%.
`COC[C@H](C)Nc1nccc(-c2ncnc(Nc3cc(Cl)cc(Cl)c3)n2)n1` [Compound 28]: the “Test C disease control rating” value in assay [1] is 99%. Moreover, the “Test B disease control rating” value in assay [2] came to 73%. Besides, the “Test E disease control rating” value in assay [3] is on record as 90%. Moreover, the “Test I disease control rating” value in assay [4] worked out at 96%. Also, the “Test D disease control rating” value in assay [5] amounted to 0%. Moreover, the “Test F disease control rating” value in assay [6] (40 ppm (marked *)) is on record as 84* %. For the same compound, in assay [7] (setting [9]), the “Test H disease control rating” value came out at 85%.
On to `COCC(C)Nc1cc(-c2ccnc(Nc3c(C)cccc3Cl)n2)ncn1` (centres unmarked) [Compound 110, N^2-(2-chloro-6-methylphenyl)-N^6′-(2-methoxy-1-methylethyl) [4,4′-bipyrimidine]-2,6′-diamine], for which the pest or weed control at 200 ppm in assay [1] amounted to 60%; in assay [2], 89%; in assay [3], 0%; in assay [4], 97%; in assay [5], 9%; in assay [6] (setting [9]), 65%. The pest or weed control at 200 ppm in assay [7] (setting [9]) turned out to be 89%.
Consider `CSCC(C)Nc1nccc(-c2ccnc(Nc3cccc(F)c3)c2)n1` (centres unmarked) [Compound 94, 4-[2-[(3-fluorophenyl)amino]-4-pyridinyl]-N-[1-methyl-2-(methylthio)ethyl]-2-pyrimidinamine], for which the pest or weed control at 200 ppm in assay [1] is 95%; in assay [2], 89%; in assay [3] it was 0%; in assay [4], 0%; in assay [5] it was 69%; in assay [6] (setting [9]), 72%. Moreover, the pest or weed control at 200 ppm in assay [7] (setting [9]) came out at 0%.
In the case of `COC[C@H](C)Nc1nccc(-c2ncnc(Nc3ccccc3F)n2)n1` [Compound 17], the “Test C disease control rating” value in assay [1] was found to be 99%. Besides, in assay [2], the “Test B disease control rating” value was 86%. Besides, the “Test E disease control rating” value in assay [3] is 0%. Besides, the “Test I disease control rating” value in assay [4] was 98%. For the same compound, the “Test D disease control rating” value in assay [5] is reported as 66%. In addition, the “Test F disease control rating” value in assay [6] (setting [9]) was determined as 97%. In addition, the “Test H disease control rating” value in assay [7] (setting [9]) was determined as 90%.
`COC[C@H](C)Nc1nccc(-c2ncnc(Nc3ccc(F)c(F)c3)n2)n1` [Compound 29]: in assay [1], the “Test C disease control rating” value is 100%. The “Test B disease control rating” value in assay [2] amounted to 100%. The “Test E disease control rating” value in assay [3] is recorded as 99%. Also, in assay [5], the “Test D disease control rating” value was 90%. For the same compound, in assay [6] (setting [9]), the “Test F disease control rating” value is reported as 91%. The “Test H disease control rating” value in assay [7] (40 ppm (marked *)) is on record as 97* %.
On to `COCC(C)Nc1nccc(-c2cc(Nc3cccc(F)c3)ncn2)n1` (centres unmarked) [Compound 109, N^6′-(3-fluorophenyl)-N^2-(2-methoxy-1-methylethyl) [4,4′-bipyrimidine]-2,6′-diamine], for which the pest or weed control at 200 ppm was determined as 94% in assay [1]; 96% in assay [2]; 0% in assay [3]; 9% in assay [4]; 5% in assay [5]; 0% in assay [6] (setting [9]). Also, the pest or weed control at 200 ppm in assay [8] (Blumeria graminis, 192 h, read-out: Test A disease control rating) was determined as 0%.
In the case of `Cc1ccc2ccccc2c1Nc1cc(-c2ccnc(NC3CCOCC3)n2)ccn1` [Compound 89], the “Test C disease control rating” value in assay [1] came to 100%. Moreover, the “Test B disease control rating” value in assay [2] stood at 95%. Also, the “Test E disease control rating” value in assay [3] came to 89%. Also, the “Test I disease control rating” value in assay [4] came to 0%. For the same compound, in assay [5], the “Test D disease control rating” value was 0%. Besides, the “Test F disease control rating” value in assay [6] (setting [9]) is reported as 99%. In assay [8], the “Test A disease control rating” value was 74%.
Take `COC[C@H](C)Nc1nccc(-c2ncnc(Nc3ccc(F)cc3)n2)n1` [Compound 13]: the “Test C disease control rating” value in assay [1] is 100%. Moreover, the “Test B disease control rating” value in assay [2] came to 100%. Further, the “Test E disease control rating” value in assay [3] amounted to 96%. The “Test D disease control rating” value in assay [5] came to 26%. Also, the “Test F disease control rating” value in assay [6] (setting [9]) was found to be 87%. For the same compound, the “Test H disease control rating” value in assay [7] (40 ppm (marked *)) is reported as 98* %.
Turning to `FC(F)(F)c1cccc(Cl)c1Nc1cc(-c2ccnc(NC3CCOCC3)n2)ccn1` [Compound 98], the “Test C disease control rating” value in assay [1] came to 99%. Moreover, in assay [2], the “Test B disease control rating” value was 99%. The “Test E disease control rating” value in assay [3] was 97%. Besides, the “Test I disease control rating” value in assay [4] amounted to 0%. The “Test D disease control rating” value in assay [5] is given as 83%. Also, the “Test F disease control rating” value in assay [6] (setting [9]) was found to be 91%. Moreover, the “Test A disease control rating” value in assay [8] is given as 89%.
